Measured values reported in patent US9580416B2, “Inhibitors of Bruton's tyrosine kinase” (PHARMACYCLICS LLC, priority 2014, dated 2017).

Tests used:
Assay type in all cases: biochemical
[1] = target: Btk (Homo sapiens, UniProt Q06187); assay: Btk kinase activity, TR-FRET assay; conditions: read-out: Btk (IC50)
Outline: (§1)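 Enzyme (Btk 0.5 nM; Lck 6 nM) reacted 1 h with inhibitor, ATP at Km and biotin-peptide substrate in pH 7.4 buffer, 10% DMSO. Phosphopeptide detected by Eu-p-Tyr100 antibody plus streptavidin-APC (665/615 nm). IC50 calculated from fitted Ki(app) via ATP/Km correction plus half total enzyme.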

[2] = target: Lck (Homo sapiens, UniProt P06239); assay: Lck kinase activity, TR-FRET assay; conditions: read-out: LCK (IC50)
Sequence of Lck (P06239 whole entry, species assumed): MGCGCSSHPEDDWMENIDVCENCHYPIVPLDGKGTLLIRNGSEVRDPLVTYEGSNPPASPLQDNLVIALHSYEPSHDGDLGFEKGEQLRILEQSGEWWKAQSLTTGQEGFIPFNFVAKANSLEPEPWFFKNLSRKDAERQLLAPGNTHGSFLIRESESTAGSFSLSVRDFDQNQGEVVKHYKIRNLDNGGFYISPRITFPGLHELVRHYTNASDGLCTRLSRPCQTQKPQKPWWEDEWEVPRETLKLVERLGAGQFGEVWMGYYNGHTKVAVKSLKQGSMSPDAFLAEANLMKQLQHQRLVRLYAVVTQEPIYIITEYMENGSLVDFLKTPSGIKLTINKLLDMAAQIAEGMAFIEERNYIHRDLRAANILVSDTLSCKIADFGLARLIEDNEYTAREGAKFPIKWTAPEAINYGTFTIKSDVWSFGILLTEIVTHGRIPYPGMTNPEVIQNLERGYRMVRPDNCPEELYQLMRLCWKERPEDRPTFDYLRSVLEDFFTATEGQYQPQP
Outline: as §1

[3] = target: EGFR (Homo sapiens, UniProt P00533); assay: Inhibition of a panel of kinases, in vitro HotSpot kinase assay: EGFR
Sequence of EGFR (P00533 25-1210): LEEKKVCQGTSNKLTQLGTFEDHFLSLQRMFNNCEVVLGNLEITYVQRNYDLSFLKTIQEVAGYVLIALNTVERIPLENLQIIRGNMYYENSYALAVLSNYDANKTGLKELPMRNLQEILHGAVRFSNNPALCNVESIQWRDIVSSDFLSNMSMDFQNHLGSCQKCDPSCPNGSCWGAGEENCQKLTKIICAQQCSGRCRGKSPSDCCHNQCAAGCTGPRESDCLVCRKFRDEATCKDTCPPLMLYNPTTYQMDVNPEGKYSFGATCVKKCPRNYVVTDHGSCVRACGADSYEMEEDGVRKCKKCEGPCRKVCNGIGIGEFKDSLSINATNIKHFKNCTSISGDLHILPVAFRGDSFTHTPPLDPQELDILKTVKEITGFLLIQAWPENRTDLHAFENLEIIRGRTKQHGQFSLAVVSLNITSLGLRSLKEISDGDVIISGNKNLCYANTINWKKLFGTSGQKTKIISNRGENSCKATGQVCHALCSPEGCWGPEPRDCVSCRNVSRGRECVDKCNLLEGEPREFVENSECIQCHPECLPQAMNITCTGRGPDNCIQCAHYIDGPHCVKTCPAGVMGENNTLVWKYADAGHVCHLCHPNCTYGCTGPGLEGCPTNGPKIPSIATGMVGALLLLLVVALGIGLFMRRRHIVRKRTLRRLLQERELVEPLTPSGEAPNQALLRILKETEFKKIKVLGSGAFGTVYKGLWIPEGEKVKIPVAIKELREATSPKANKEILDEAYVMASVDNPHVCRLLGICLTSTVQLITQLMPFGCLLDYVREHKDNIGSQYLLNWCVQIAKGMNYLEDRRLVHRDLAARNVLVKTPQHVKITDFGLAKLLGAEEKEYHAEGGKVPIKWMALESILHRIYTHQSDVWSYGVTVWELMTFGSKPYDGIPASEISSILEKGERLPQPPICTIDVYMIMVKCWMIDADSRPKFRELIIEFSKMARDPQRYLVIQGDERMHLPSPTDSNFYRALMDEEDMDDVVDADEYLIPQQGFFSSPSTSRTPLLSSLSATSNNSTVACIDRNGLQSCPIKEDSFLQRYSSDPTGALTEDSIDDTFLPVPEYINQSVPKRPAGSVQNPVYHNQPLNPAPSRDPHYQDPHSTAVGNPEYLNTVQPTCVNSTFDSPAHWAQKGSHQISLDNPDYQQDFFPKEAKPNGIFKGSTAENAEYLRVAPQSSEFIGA
Experimental: (§2) The degree of inhibition of a panel of kinases is determined using the in vitro HotSpot kinase assay (purified enzymes, ^33P-ATP, an appropriate substrate and 1 uM ATP).

[4] = target: T1, JAK3 (Homo sapiens, UniProt P52333); assay: Inhibition of a panel of kinases, in vitro HotSpot kinase assay: JAK3
T1 sequence (P52333 1-1124): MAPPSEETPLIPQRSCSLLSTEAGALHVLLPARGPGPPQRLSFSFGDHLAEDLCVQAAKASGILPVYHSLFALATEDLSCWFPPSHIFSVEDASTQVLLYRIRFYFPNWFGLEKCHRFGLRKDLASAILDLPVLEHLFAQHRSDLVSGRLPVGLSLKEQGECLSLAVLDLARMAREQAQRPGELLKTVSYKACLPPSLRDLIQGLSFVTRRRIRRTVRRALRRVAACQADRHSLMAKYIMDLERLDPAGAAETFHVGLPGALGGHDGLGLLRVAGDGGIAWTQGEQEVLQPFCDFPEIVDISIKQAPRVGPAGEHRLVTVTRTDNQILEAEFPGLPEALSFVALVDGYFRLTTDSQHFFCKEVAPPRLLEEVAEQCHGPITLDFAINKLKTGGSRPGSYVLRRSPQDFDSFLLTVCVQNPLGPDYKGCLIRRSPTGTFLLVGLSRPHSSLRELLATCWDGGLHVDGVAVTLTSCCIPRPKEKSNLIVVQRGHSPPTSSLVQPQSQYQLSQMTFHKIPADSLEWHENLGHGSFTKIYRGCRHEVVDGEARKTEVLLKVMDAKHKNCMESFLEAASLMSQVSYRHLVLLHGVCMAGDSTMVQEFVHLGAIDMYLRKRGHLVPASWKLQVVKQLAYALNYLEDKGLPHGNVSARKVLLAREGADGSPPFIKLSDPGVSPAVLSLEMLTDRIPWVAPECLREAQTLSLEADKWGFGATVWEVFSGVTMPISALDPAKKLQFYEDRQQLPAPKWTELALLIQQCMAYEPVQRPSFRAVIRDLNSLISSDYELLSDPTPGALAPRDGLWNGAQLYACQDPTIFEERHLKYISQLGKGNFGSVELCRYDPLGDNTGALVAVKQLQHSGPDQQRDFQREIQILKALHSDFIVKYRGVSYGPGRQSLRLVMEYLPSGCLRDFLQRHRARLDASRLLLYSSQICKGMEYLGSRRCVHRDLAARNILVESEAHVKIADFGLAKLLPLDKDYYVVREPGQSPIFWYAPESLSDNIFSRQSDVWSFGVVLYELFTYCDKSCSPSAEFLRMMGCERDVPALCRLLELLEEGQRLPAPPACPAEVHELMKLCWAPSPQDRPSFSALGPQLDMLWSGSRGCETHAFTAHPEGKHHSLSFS
Experimental: as §2

Sequence of Btk (Q06187 whole entry): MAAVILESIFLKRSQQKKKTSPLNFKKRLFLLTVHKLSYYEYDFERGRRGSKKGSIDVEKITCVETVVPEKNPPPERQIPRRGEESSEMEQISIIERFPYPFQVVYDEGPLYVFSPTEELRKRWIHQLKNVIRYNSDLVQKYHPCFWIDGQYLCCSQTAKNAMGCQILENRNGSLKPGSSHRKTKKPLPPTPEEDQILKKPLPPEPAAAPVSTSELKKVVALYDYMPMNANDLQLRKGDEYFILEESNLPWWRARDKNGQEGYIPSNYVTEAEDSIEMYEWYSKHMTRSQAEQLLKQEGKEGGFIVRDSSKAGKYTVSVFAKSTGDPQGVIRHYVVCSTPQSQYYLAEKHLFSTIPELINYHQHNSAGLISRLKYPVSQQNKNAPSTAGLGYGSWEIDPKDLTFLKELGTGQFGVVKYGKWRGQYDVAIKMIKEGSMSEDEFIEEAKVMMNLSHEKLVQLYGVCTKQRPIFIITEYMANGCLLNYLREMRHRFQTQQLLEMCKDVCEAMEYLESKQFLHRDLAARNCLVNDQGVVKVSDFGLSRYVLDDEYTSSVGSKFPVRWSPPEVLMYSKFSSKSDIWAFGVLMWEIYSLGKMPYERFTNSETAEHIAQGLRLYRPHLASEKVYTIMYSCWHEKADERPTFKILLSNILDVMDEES

| IC50 [1] | IC50 [2] | IC50 [3] | IC50 [4] | SMILES |
| --- | --- | --- | --- | --- |
| > 10000 nM | > 10000 nM | > 10000 nM | > 10000 nM | CCC(=O)N1CCC[C@@H](Nc2n[nH]c3nccc(Oc4ccc(-c5nc6cccc(C)c6o5)cc4)c23)C1 [compound 219, 1-[(3R)-3-({4-[4-(7-methyl-1,3-benzoxazol-2-yl)phenoxy]-1H-pyrazolo[3,4-b]pyridin-3-yl}amino)piperidin-1-yl]propan-1-one] |
| < 100 nM | 1000 to 10000 nM | 1000 to 10000 nM | 1000 to 10000 nM | Cc1cnc(NC(=O)c2ccc(Oc3ccnc4[nH]nc(N[C@@H]5CCCN(C(=O)/C=C/CN(C)C6CC6)C5)c34)cc2)s1 [compound 142] |
| 100 to 1000 nM | 1000 to 10000 nM | > 10000 nM | > 10000 nM | Cc1cc(NC(=O)c2cccc(Nc3ccnc4[nH]nc(N[C@@H]5CCCN(C(=O)N6CCOCC6)C5)c34)c2)ccc1C(C)C [compound 133, N-[3-methyl-4-(propan-2-yl)phenyl]-3-[(3-{[(3R)-1-(morpholine-4-carbonyl)piperidin-3-yl]amino}-1H-pyrazolo[3,4-b]pyridin-4-yl)amino]benzamide] |
| 100 to 1000 nM | > 10000 nM | 1000 to 10000 nM | 100 to 1000 nM | C=CC(=O)N1CCC[C@@H](Nc2n[nH]c3nccc(O[C@H]4CC[C@H](C(=O)Nc5ncc(C)s5)CC4)c23)C1 [compound 144] |
| 100 to 1000 nM | < 100 nM | 1000 to 10000 nM | 100 to 1000 nM | C=CC(=O)N1CC[C@H](Nc2n[nH]c3nccc(Oc4cccc(C(=O)Nc5ccc(C(C)C)c(C)c5)c4)c23)C1 [compound 126, N-[3-methyl-4-(propan-2-yl)phenyl]-3-[(3-{[(3S)-1-(prop-2-enoyl)pyrrolidin-3-yl]amino}-1H-pyrazolo[3,4-b]pyridin-4-yl)oxy]benzamide] |
| < 100 nM | 1000 to 10000 nM | 1000 to 10000 nM | 1000 to 10000 nM | Cc1nc(NC(=O)c2ccc(Oc3ccnc4[nH]nc(N[C@@H]5CCCN(C(=O)/C=C/CN(C)C6CC6)C5)c34)cc2)sc1C [compound 164] |
| < 100 nM | 100 to 1000 nM | > 10000 nM | 100 to 1000 nM | CC#CC(=O)N1CCC[C@@H](Nc2n[nH]c3nccc(Oc4ccc(C(=O)Nc5nc6ccccc6s5)cc4)c23)C1 [compound 183] |
| < 100 nM | 100 to 1000 nM | > 10000 nM | > 10000 nM | CC#CC(=O)N1CCC[C@@H](Nc2n[nH]c3nccc(Oc4ccc(C(=O)Nc5cc(C)ccn5)cc4)c23)C1 [compound 280, (R)-4-(3-(1-but-2-ynoylpiperidin-3-ylamino)-1H-pyrazolo[3,4-b]pyridin-4-yloxy)-N-(4-methylpyridin-2-yl)benzamide] |
| < 100 nM | 1000 to 10000 nM | > 10000 nM | > 10000 nM | Cc1ccnc(NC(=O)c2ccc(Oc3ccnc4[nH]nc(N[C@@H]5CCCN(C(=O)c6ccccn6)C5)c34)cc2)c1 [compound 110, N-(4-methylpyridin-2-yl)-4-[(3-{[(3R)-1-(pyridine-2-carbonyl)piperidin-3-yl]amino}-1H-pyrazolo[3,4-b]pyridin-4-yl)oxy]benzamide] |
| 100 to 1000 nM | > 10000 nM | > 10000 nM | > 10000 nM | CC#CC(=O)N1CCC[C@@H](Nc2n[nH]c3nccc(Oc4ccc(C(=O)Nc5cc(C)n(C)n5)cc4)c23)C1 [compound 185] |
| < 100 nM | 100 to 1000 nM | > 10000 nM | > 10000 nM | Cc1ccnc(NC(=O)c2ccc(Oc3ccnc4[nH]nc(N[C@@H]5CCCN(C(=O)[C@@H]6CCOC6)C5)c34)cc2)c1 [compound 115, N-(4-methylpyridin-2-yl)-4-[(3-{[(3R)-1-[(3R)-oxolane-3-carbonyl]piperidin-3-yl]amino}-1H-pyrazolo[3,4-b]pyridin-4-yl)oxy]benzamide] |
| < 100 nM | 100 to 1000 nM | 1000 to 10000 nM | > 10000 nM | Cc1cnc(NC(=O)c2ccc(Oc3ccnc4[nH]nc(N[C@@H]5CCCN(C(=O)/C=C/CN(C)C)C5)c34)cc2)s1 [compound 198, 4-[(3-{[(3R)-1-[(2E)-4-(dimethylamino)but-2-enoyl]piperidin-3-yl]amino}-1H-pyrazolo[3,4-b]pyridin-4-yl)oxy]-N-(5-methyl-1,3-thiazol-2-yl)benzamide] |
| < 100 nM | > 10000 nM | > 10000 nM | > 10000 nM | CN(C)C(=O)N1CCC[C@@H](Nc2n[nH]c3nccc(Oc4ccc(C(=O)Nc5ccccn5)cc4)c23)C1 [compound 233, (3R)-N,N-dimethyl-3-[(4-{4-[(pyridin-2-yl)carbamoyl]phenoxy}-1H-pyrazolo[3,4-b]pyridin-3-yl)amino]piperidine-1-carboxamide] |
| < 100 nM | 100 to 1000 nM | > 10000 nM | 100 to 1000 nM | CCNC(=O)N1CCC[C@@H](Nc2n[nH]c3nccc(Oc4ccc(C(=O)Nc5nc6ccccc6s5)cc4)c23)C1 [compound 176] |
| < 100 nM | < 100 nM | 100 to 1000 nM | < 100 nM | C=CC(=O)N1CC[C@@H](Nc2n[nH]c3nccc(Oc4cccc(C(=O)Nc5ccc(C(C)C)c(C)c5)c4)c23)C1 [compound 122, N-[3-methyl-4-(propan-2-yl)phenyl]-3-[(3-{[(3R)-1-(prop-2-enoyl)pyrrolidin-3-yl]amino}-1H-pyrazolo[3,4-b]pyridin-4-yl)oxy]benzamide] |
| > 10000 nM | > 10000 nM | > 10000 nM | > 10000 nM | CCC(=O)N1CCC[C@@H](Nc2n[nH]c3nccc(Oc4ccc(-c5nc6ccccc6[nH]5)cc4)c23)C1 [compound 231, 1-[(3R)-3-({4-[4-(1H-1,3-benzodiazol-2-yl)phenoxy]-1H-pyrazolo[3,4-b]pyridin-3-yl}amino)piperidin-1-yl]propan-1-one] |
